Assay results: ChEMBL document CHEMBL2040761, “Design, synthesis, and evaluation of indanone derivatives as acetylcholinesterase inhibitors and metal-chelating agents” (Bioorg Med Chem Lett, 2012)
The source made the active and inactive calls. No cut-off for these calls is given here.

Legend:
Acetylcholinesterase = Acetylcholinesterase (Electrophorus electricus, UniProt O42275)
Description: Inhibition of electric eel acetylcholine esterase using acetylcholine chloride as substrate incubated for 15 mins prior to substrate addition measured every 1 min by Ellman's assay

Cholinesterase = Cholinesterase (Equus caballus, UniProt P81908)
Description: Inhibition of equine serum butyrylcholinesterase using butyrylthiocholine chloride as substrate incubated for 15 mins prior to substrate addition measured every 1 min by Ellman's assay

[1] = biological target: Acetylcholinesterase (Electrophorus electricus) (UniProt O42275); assay: Mixed-type inhibition of electric eel acetylcholine esterase using acetylcholine chloride as substrate at 0.001 to 0.003 uM incubated for 15 mins by Lineweaver Burk plot analysis
Acetylcholinesterase (Electrophorus electricus), sequence (O42275 24-633 limits assumed): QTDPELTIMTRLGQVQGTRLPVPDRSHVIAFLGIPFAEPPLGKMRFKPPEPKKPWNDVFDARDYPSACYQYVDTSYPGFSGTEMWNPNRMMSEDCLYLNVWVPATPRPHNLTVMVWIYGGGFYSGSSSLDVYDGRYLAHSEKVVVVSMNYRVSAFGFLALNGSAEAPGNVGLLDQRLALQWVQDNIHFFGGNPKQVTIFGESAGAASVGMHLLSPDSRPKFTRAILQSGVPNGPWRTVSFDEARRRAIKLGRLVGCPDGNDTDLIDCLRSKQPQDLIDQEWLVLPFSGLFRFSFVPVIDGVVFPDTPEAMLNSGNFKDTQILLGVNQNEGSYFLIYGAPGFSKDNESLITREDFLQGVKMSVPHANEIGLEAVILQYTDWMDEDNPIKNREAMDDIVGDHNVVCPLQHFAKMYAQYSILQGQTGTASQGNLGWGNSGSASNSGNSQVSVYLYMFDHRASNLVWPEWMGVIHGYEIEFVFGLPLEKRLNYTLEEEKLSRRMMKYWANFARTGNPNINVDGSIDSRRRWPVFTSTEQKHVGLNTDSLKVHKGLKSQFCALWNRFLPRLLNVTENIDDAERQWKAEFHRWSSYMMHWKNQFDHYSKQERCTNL

[2] = biological target: Acetylcholinesterase (Electrophorus electricus) (UniProt O42275); assay: Ratio of tacrine IC50 to compound IC50 for electric eel acetylcholine esterase
[3] = biological target: Acetylcholinesterase (Electrophorus electricus) (UniProt O42275); assay: Ratio of donepezil IC50 to compound IC50 for electric eel acetylcholine esterase

Cholinesterase, sequence (P81908 whole entry): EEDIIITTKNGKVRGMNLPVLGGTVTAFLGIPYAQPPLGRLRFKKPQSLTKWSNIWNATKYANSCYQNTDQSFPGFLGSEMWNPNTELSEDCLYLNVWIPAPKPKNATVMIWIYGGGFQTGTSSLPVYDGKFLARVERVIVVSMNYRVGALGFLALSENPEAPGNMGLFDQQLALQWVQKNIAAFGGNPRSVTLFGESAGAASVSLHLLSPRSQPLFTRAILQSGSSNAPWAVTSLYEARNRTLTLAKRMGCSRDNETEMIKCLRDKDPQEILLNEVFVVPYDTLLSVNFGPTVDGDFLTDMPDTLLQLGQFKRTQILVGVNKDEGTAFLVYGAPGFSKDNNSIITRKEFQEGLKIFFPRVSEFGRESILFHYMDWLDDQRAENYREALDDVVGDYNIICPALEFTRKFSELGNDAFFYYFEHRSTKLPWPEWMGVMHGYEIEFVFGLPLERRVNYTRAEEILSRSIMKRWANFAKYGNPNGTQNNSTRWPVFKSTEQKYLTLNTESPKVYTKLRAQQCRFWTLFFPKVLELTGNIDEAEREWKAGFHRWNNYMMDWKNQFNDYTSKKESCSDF
Acetylcholinesterase, sequence (O42275 whole entry): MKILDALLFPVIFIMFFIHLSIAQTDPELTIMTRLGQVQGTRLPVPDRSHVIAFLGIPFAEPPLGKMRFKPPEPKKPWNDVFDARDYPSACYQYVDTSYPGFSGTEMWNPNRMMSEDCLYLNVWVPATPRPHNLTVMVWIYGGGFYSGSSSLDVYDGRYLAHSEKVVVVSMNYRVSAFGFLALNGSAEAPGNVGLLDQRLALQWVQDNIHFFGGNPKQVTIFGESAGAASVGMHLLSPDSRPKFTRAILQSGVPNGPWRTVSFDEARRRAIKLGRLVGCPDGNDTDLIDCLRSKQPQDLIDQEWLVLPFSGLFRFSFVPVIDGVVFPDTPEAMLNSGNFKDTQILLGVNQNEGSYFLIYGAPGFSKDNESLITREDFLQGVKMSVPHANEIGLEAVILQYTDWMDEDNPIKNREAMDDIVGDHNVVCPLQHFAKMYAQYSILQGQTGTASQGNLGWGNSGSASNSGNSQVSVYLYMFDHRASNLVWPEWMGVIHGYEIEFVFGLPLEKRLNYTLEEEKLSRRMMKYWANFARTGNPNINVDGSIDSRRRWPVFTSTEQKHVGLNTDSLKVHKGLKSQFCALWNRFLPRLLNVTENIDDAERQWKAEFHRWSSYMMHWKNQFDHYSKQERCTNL

COc1cc2c(cc1OCCCCCCN1CCCCC1)C(=O)/C(=C\c1ccncc1)C2
IC50 (Acetylcholinesterase): 0.232 µM | IC50 (Cholinesterase): 4.47 µM

COc1cc2c(cc1OCCCN1CCCCC1)C(=O)/C(=C\c1ccncc1)C2
IC50 (Acetylcholinesterase): 0.062 µM | IC50 (Cholinesterase): 42.7 µM

COc1cc2c(cc1OCCCN1CCCCC1)C(=O)CC2
IC50 (Acetylcholinesterase): 0.916 µM | IC50 (Cholinesterase): 32.9 µM

COc1cc2c(cc1OCCN1CCCCC1)C(=O)/C(=C\c1ccncc1)C2
inhibition [1]: Active | Ratio IC50 [2]: 47 | Ratio IC50 [3]: 14 | IC50 (Acetylcholinesterase): 0.0018 µM | IC50 (Cholinesterase): 9.5 µM

COc1cc2c(cc1OCCN1CCCCC1)C(=O)/C(=C\c1ccccc1)C2
IC50 (Acetylcholinesterase): 0.0091 µM | IC50 (Cholinesterase): 2.24 µM

CCN(CC)CCCCCCOc1cc2c(cc1OC)C/C(=C/c1ccncc1)C2=O
IC50 (Acetylcholinesterase): 0.271 µM | IC50 (Cholinesterase): 13.4 µM

COc1cc2c(cc1OCCCCCN1CCCCC1)C(=O)/C(=C\c1ccncc1)C2
IC50 (Acetylcholinesterase): 0.288 µM | IC50 (Cholinesterase): 9.15 µM

COc1cc2c(cc1OCCN1CCCCC1)C(=O)CC2
IC50 (Acetylcholinesterase): 3.11 µM | IC50 (Cholinesterase): 137 µM

COc1cc2c(cc1OCCCCN1CCCCC1)C(=O)/C(=C\c1ccncc1)C2
IC50 (Acetylcholinesterase): 0.081 µM | IC50 (Cholinesterase): 13.8 µM

COc1cc2c(cc1OCCCCN1CCCC1)C(=O)/C(=C\c1ccncc1)C2
IC50 (Acetylcholinesterase): 0.156 µM | IC50 (Cholinesterase): 17.5 µM

CCN(CC)CCCCOc1cc2c(cc1OC)C/C(=C/c1ccncc1)C2=O
IC50 (Acetylcholinesterase): 0.205 µM | IC50 (Cholinesterase): 28.9 µM

COc1cc2c(cc1OCCCCCCn1ccnc1)C(=O)/C(=C\c1ccncc1)C2
IC50 (Acetylcholinesterase): 2.87 µM | IC50 (Cholinesterase): 18.5 µM

COc1cc2c(cc1O)C(=O)CC2
IC50 (Acetylcholinesterase): 92 µM | IC50 (Cholinesterase): 258 µM

COc1cc2c(cc1OCCCCCN1CCCCC1)C(=O)CC2
IC50 (Acetylcholinesterase): 0.361 µM | IC50 (Cholinesterase): 115 µM

COc1cc2c(cc1OCCN1CCCCC1)C(=O)/C(=C\c1ccccn1)C2
IC50 (Acetylcholinesterase): 0.0044 µM | IC50 (Cholinesterase): 7.48 µM

COc1cc2c(cc1OCCCCCCCCCN1CCCCC1)C(=O)/C(=C\c1ccncc1)C2
IC50 (Acetylcholinesterase): 0.734 µM | IC50 (Cholinesterase): 1.24 µM

COc1cc2c(cc1O)C(=O)/C(=C\c1ccncc1)C2
IC50 (Acetylcholinesterase): 49.6 µM | IC50 (Cholinesterase): 247 µM

COc1cc2c(cc1OCCN1CCCCC1)C(=O)C(Cc1ccccc1)C2 (centres undefined)
IC50 (Acetylcholinesterase): 1.27 µM | IC50 (Cholinesterase): 9.2 µM
